Measured values published in patent US8946266B2, “Substituted triazole and imidazole derivatives as gamma secretase modulators” (Janssen Pharmaceuticals, Inc., priority 2009, dated 2015).
pIC50: −log10 of the molar value. Where two headings read alike, the source gives them in different places.

What was measured:
Format in all cases: cell-based
Aβtotal = experiment: γ-secretase-modulating activity, Method 2: Aβtotal Alphalisa in supernatant of SKNBE2 cells carrying APP 695-wild type (Table 3b); settings: overnight, read-out: IC50 Aβtot
How it was run: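 SKNBE2 cells expressing wild-type APP 695 were incubated overnight at 37 °C, 5% CO2 with test compound at a range of concentrations. Aβtotal in supernatant was measured by AlphaLISA sandwich (N-terminal JRF/AβN/25 acceptor, biotinylated mid-region 4G8 donor); IC50 from 4-parameter fit of percent control versus log concentration.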

Aβ42 [1] = experiment: γ-secretase-modulating activity, Method 2: Aβ42 Alphalisa in supernatant of SKNBE2 cells carrying APP 695-wild type (Table 3b); settings: overnight
How it was run: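 SKNBE2 cells expressing wild-type APP695 were incubated overnight at 37° C. with test compound. Secreted Aβ42 was then measured by AlphaLISA, using a C-terminal Aβ42 antibody paired with an N-terminal Aβ antibody. IC50 came from a 4-parameter fit of percent of compound-free control.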

Aβ42 [2] = experiment: γ-secretase-modulating activity, Method 1: Aβ42 sandwich ELISA in supernatant of SKNBE2 cells carrying APP 695-wild type (Table 3a); settings: 18 h, averaged IC50 values
Protocol: Pharmacology A) Screening of the Compounds of the Invention for γ-Secretase-Modulating Activity A1) Method 1
Screening was carried out using SKNBE2 cells carrying the APP 695-wild type, grown in Dulbecco's Modified Eagle's Medium/Nutrient mixture F-12 (DMEM/NUT-mix F-12) (HAM) provided by Gibco (cat no. 31330-38) containing 5% Serum/Fe supplemented with 1% non-essential amino acids. Cells were grown to near confluency.
The screening was performed using the assay as described in Citron et al (1997) Nature Medicine 3: 67. Briefly, cells were plated in a 96-well plate at about 10^5 cells/ml one day prior to addition of compounds. Compounds were added to the cells in Ultraculture (Lonza, BE12-725F) supplemented with 1% glutamine (Invitrogen, 25030-024) for 18 h. The media were assayed by two sandwich ELISAs, for Aβ42 and Aβtotal. Toxicity of the compounds was assayed by WST-1 cell proliferation reagent (Roche, 1 644 807) according to the manufacturer's protocol.
To quantify the amount of Aβ42 in the cell supernatant, commercially available Enzyme-Linked-Immunosorbent-Assay (ELISA) kits were used (Innotest® β-Amyloid(1-42), Innogenetics N.V., Ghent, Belgium). The Aβ42 ELISA was performed essentially according to the manufacturer's protocol. Briefly, the standards (dilutions of synthetic Aβ1-42) were prepared in polypropylene Eppendorf with final concentrations of 8000 down to 3.9 pg/ml (1/2 dilution step). Samples, standards and blanks (100 μl) were added to the anti-Aβ42-coated plate supplied with the kit (the capture antibody selectively recognizes the C-terminal end of the antigen). The plate was allowed to incubate 3 h at 25° C. in order to allow formation of the antibody-amyloid complex. Following this incubation and subsequent wash steps a selective anti-Aβ-antibody conjugate (biotinylated 3D6) was added and incubated for a minimum of 1 hour (h) in order to allow formation of the antibody-Amyloid-antibody-complex. After incubation and appropriate wash steps, a Streptavidine-Peroxidase-Conjugate was added, followed 30 minutes later by an addition of 3,3′,5,5′-tetramethylbenzidine (TMB)/peroxide mixture, resulting in the conversion of the substrate into a coloured product. This reaction was stopped by the addition of sulfuric acid (0.9 N) and the colour intensity was measured by means of photometry with an ELISA-reader with a 450 nm filter.
To obtain the values reported in Table 3a, the data were calculated as percentage of the maximum amount of amyloid Beta 42 measured in the absence of the test compound. The sigmoidal dose response curves were analyzed using non-linear regression analysis with percentage of the control plotted against the log concentration of the compound. A 4-parameter equation was used to determine the IC50. The values reported in Table 3a are averaged IC50 values.

pIC50 (Aβtotal; Homo sapiens)	pIC50 (Aβ42 [1]; Homo sapiens)	pIC50 (Aβ42 [2]; Homo sapiens)	pIC50 (Aβtotal)	pIC50 (Aβ42 [1])	pIC50 (Aβ42 [2])	Compound
< 5.00	6.74	6.96				COc1cc(-c2nc(C)c(-c3ccccc3)[nH]2)ccc1-n1cnc(C)c1 [Compound 11]
			< 5.00	7.30	6.60	COc1cc(-c2nc(Nc3ccc(F)cc3C(F)(F)F)n(C)n2)ccc1-n1cnc(C)c1 [Compound 15]
< 5.00	6.22	6.10				COc1cc(-c2nc(-c3ccccc3)n(C)n2)ccc1-n1cnc(C)c1 [Compound 9]
			5.39	7.82		COc1cc(-c2nc(Nc3cccc(C(F)(F)F)c3)n(C)n2)ccc1-n1cnc(C)c1 [Compound 146]
